Laboratory results taken from ChEMBL document CHEMBL1138323 (J Med Chem, 2007).
Values after ≈ are worked out from the molar mass of the structure shown.

Experiments:
[1] = organism: Rattus norvegicus; experiment: Anticonvulsant activity in Sprague-Dawley rat by maximal electroshock seizure test; type: functional
[2] = tested on: Rattus norvegicus; experiment: Anticonvulsant activity in Sprague-Dawley rat by subcutaneous pentylenetetrazole test; type: functional; conditions: sc
[3] = Neurotoxicity in Sprague-Dawley rat by rotarod test; type: toxicity, organism-based; conditions: in vivo
[4] = organism: Rattus norvegicus; experiment: Protective index, ratio of TD50 for Sprague-Dawley rat by rotarod test to ED50 for Sprague-Dawley rat by MES test; type: functional
[5] = organism: Rattus norvegicus; experiment: Protective index, ratio of TD50 for Sprague-Dawley rat by rotarod test to ED50 for Sprague-Dawley rat by scMET test; type: functional
[6] = organism: Mus musculus; experiment: Anticonvulsant activity in Albino CF1 mouse by 6-Hz psychomotor seizure test at 32 mA current; type: functional
[7] = organism: Mus musculus; experiment: Anticonvulsant activity in Albino CF1 mouse by 6-Hz psychomotor seizure test at 44 mA current; type: functional
[8] = Neurotoxicity in Albino CF1 mouse by rotarod test; type: toxicity, organism-based; conditions: in vivo
[9] = organism: Mus musculus; experiment: Protective index, ratio of TD50 for Albino CF1 mouse to ED50 for Albino CF1 mouse by 6-Hz psychomotor seizure test at 32 mA current; type: functional
[10] = organism: Mus musculus; experiment: Protective index, ratio of TD50 for Albino CF1 mouse to ED50 for Albino CF1 mouse by 6-Hz psychomotor seizure test at 44 mA current; type: functional
[11] = tested on: Mus musculus; experiment: Teratogenic effect in Swiss Webster Vancouver mouse assessed as embryo lethality at 205 mg/kg, ip; type: toxicity, organism-based; design: dose 205 mg/kg, route intraperitoneal; conditions: in vivo
[12] = tested on: Mus musculus; experiment: Teratogenic effect in Swiss Webster Vancouver mouse assessed as embryo lethality at 503 mg/kg, ip; type: toxicity, organism-based; design: dose 503 mg/kg, route intraperitoneal; conditions: in vivo
[13] = Teratogenic effect in Swiss Webster Vancouver mouse assessed as embryo lethality at 336 mg/kg, ip; type: toxicity, organism-based; design: dose 336 mg/kg, route intraperitoneal; conditions: in vivo, read-out: Activity
[14] = tested on: Mus musculus; experiment: Teratogenic effect in Swiss Webster Vancouver mouse assessed as exencephaly at 205 mg/kg, ip; type: toxicity, organism-based; design: dose 205 mg/kg, route intraperitoneal; conditions: in vivo
[15] = tested on: Mus musculus; experiment: Teratogenic effect in Swiss Webster Vancouver mouse assessed as exencephaly at 503 mg/kg, ip; type: toxicity, organism-based; design: dose 503 mg/kg, route intraperitoneal; conditions: in vivo
[16] = tested on: Mus musculus; experiment: Teratogenic effect in Swiss Webster Vancouver mouse assessed as exencephaly at 336 mg/kg, ip; type: toxicity, organism-based; design: dose 336 mg/kg, route intraperitoneal; conditions: in vivo
[17] = tested on: Mus musculus; experiment: Induction of lethality in Swiss Webster Vancouver mouse dams at 2.7 mmol/kg, ip after 24 hrs; type: organism-based; conditions: in vivo
[18] = tested on: Mus musculus; experiment: Induction of lethality in Swiss Webster Vancouver mouse dams at 1.8 mmol/kg, ip after 24 hrs; type: organism-based; conditions: in vivo
[19] = Solubility in water; type: physicochemical
[20] = tested on: Mus musculus; experiment: Teratogenic effect in Swiss Webster Vancouver mouse assessed as embryo lethality at 261 mg/kg, ip; type: toxicity, organism-based; design: dose 261 mg/kg, route intraperitoneal; conditions: in vivo
[21] = tested on: Mus musculus; experiment: Teratogenic effect in Swiss Webster Vancouver mouse assessed as embryo lethality at 167 mg/kg, ip; type: toxicity, organism-based; design: dose 167 mg/kg, route intraperitoneal; conditions: in vivo
[22] = tested on: Mus musculus; experiment: Teratogenic effect in Swiss Webster Vancouver mouse assessed as exencephaly at 261 mg/kg, ip; type: toxicity, organism-based; design: dose 261 mg/kg, route intraperitoneal; conditions: in vivo
[23] = tested on: Mus musculus; experiment: Teratogenic effect in Swiss Webster Vancouver mouse assessed as exencephaly at 167 mg/kg, ip; type: toxicity, organism-based; design: dose 167 mg/kg, route intraperitoneal; conditions: in vivo
[24] = tested on: Mus musculus; experiment: Induction of lethality in Swiss Webster Vancouver mouse dams at 3.6 mmol/kg, ip after 24 hrs; type: organism-based; conditions: in vivo
[25] = tested on: Mus musculus; experiment: Teratogenic effect in Swiss Webster Vancouver mouse assessed as embryo lethality at 520 mg/kg, ip; type: toxicity, organism-based; design: dose 520 mg/kg, route intraperitoneal; conditions: in vivo
[26] = tested on: Mus musculus; experiment: Teratogenic effect in Swiss Webster Vancouver mouse assessed as exencephaly at 520 mg/kg, ip; type: toxicity, organism-based; design: dose 520 mg/kg, route intraperitoneal; conditions: in vivo

Compound | ED50 [1] | ED50 [2] | TD50 [3] | Ratio TD50/ED50 [4] | Ratio TD50/ED50 [5] | ED50 [6] | ED50 [7] | TD50 [8] | Ratio TD50/ED50 [9] | Ratio TD50/ED50 [10] | solubility [19] | further results
CCC[C@H](C(N)=O)C(C)C | 63 mg/kg | 38 mg/kg | 83 mg/kg | 1.3 | 2.2 | – | – | – | – | – | – | –
CCC[C@H](C(=O)NC(N)=O)C(C)C | 18 mg/kg | 37 mg/kg | 118 mg/kg | 6.5 | 3.2 | 46 mg/kg | 75 mg/kg | 100 mg/kg | <6.5 | <4 | – | Activity [11]: 6.8%; Activity [12]: 40.7%; mortality [13]: 10.2%; Activity [14]: 0.8%; Activity [15]: 4.3%; Activity [16]: 5.7%
CCC(C)C(CC)C(=O)NC(N)=O (configuration not stated) [CAPURIDE] | – | – | 97 mg/kg | 4 | 6.9 | – | – | 50 mg/kg | <4.7 | <2.1 | 280 µg/mL (≈ 1500 µM) | Activity [11]: 39%; Activity [14]: 2.7%; Activity [17]: Toxic; Activity [18]: Toxic
CCC[C@@H](C(=O)NC(N)=O)C(C)C | 36 mg/kg | 22 mg/kg | 124 mg/kg | 3.4 | 5.6 | 43 mg/kg | 56 mg/kg | 118 mg/kg | 2.7 | 2.1 | – | Activity [11]: 7.1%; Activity [12]: 65.7%; mortality [13]: 54.4%; Activity [14]: 0%; Activity [15]: 17.5%; Activity [16]: 15.4%
CC(C)C(C(=O)NC(N)=O)C(C)C | – | – | – | 1.7 | 3.5 | 43 mg/kg | 49 mg/kg | > 50 mg/kg | <2.3 | <2 | 270 µg/mL (≈ 1450 µM) | –
CCCC(C(=O)NC(N)=O)C(C)C (racemic) | – | – | 95 mg/kg | 5.9 | 2.1 | 42 mg/kg | – | 50 mg/kg | <2 | <1.4 | 130 µg/mL (≈ 698 µM) | –
CC(C)C(C(N)=O)C(C)C | 51 mg/kg | 60 mg/kg | 72 mg/kg | 1.4 | 1.2 | > 100 mg/kg | > 100 mg/kg | – | – | – | – | –
CCCC(CCC)C(=O)NC(N)=O | 54 mg/kg | 77 mg/kg | – | 4.3 | 3 | 58 mg/kg | 105 mg/kg | > 50 mg/kg | <1.7 | – | 120 µg/mL (≈ 644 µM) | Activity [20]: 41.2%; Activity [21]: 12.9%; Activity [22]: 13.7%; Activity [23]: 0.9%; Activity [24]: Toxic
CCCC(CCC)C(=O)O [VALPROIC ACID] | – | – | – | – | – | – | – | – | – | – | 1300 µg/mL (≈ 9010 µM) | –
CCCC(CCC)C(N)=O [VALPROMIDE] | – | – | – | – | – | – | – | – | – | – | 3700 µg/mL (≈ 25800 µM) | –
CCC[C@H](C(=O)O)C(C)C | – | – | – | – | – | – | – | – | – | – | – | Activity [25]: 5.8%; Activity [26]: 0%
CCCCCCCC(=O)NC(N)=O | > 300 mg/kg | > 300 mg/kg | > 300 mg/kg | 1.4 | 1.2 | – | – | – | – | – | < 50 µg/mL | –
CCC[C@@H](C(=O)O)C(C)C | – | – | – | – | – | – | – | – | – | – | – | Activity [25]: 4.3%; Activity [26]: 0%
CCC[C@@H](C(N)=O)C(C)C | 47 mg/kg | 22 mg/kg | 82 mg/kg | 1.7 | 3.7 | – | – | – | – | – | – | –
CCCC(C(=O)O)C(C)C (racemic) | – | – | – | – | – | 149 mg/kg | – | > 300 mg/kg | >2 | – | – | Activity [25]: 5.5%; Activity [26]: 0%
CCCC(C(N)=O)C(C)C (racemic) | 50 mg/kg | 27 mg/kg | 87 mg/kg | 1.7 | 3.2 | – | – | – | – | – | – | –
